Measured values from article PMC11864979, “First-in-class ultralong-target-residence-time p38α inhibitors as a mitosis-targeted therapy for colorectal cancer” (Nature Cancer, 2025).
Values joined by “and” are separate entries in the source; they are usually repeats but may differ in a detail not shown here. Equal values may be shown once. Read-outs that look alike come from different tables or passages of the source.

Columns and labels:
PDO10 = assay: cell viability in patient-derived CRC organoids PDO10; type: cell-based, human
Description: (§1) For in vitro treatment studies, organoids were mechanically dissociated and digested using TrypLE supplemented with 100 µg ml^−1 DNaseI and 10.5 µM Y-27632 dihydrochloride (Invitrogen) at 37 °C. A total of 1,000–2,000 single cells were plated per well in white 96-well plates (Greiner) in culture medium containing 10% GFR Matrigel or Cultrex BME. The treatment with doxycycline (5 µg ml^−1), pharmacological inhibitors or corresponding volumes of DMSO was started 24 h after plating. Doxycycline was obtained from Sigma-Aldrich. […] Cell viability was measured by means of CellTiter-Glo 3D or CellTiter-Glo 2.0 reagent (Promega) according to the manufacturers’ instructions and the Infinite M Plex reader (Tecan, i-control version 3.9.1 software). Results were normalized to vehicle (DMSO) or to shNC. For cell-doubling assays, the cell number was quantified at the corresponding time points using Guava EasyCyte flow cytometer (Luminex, CytoSoft v5.2 software).

HT-29 = assay: cell viability in human CRC cell line HT-29; type: cell-based; conditions: ED Fig. 9h, replicates; for viability at 0.0137 µM / viability at 0.0412 µM / viability at 0.1235 µM / viability at 0.3704 µM / viability at 1.1111 µM / viability at 3.3333 µM / viability at 10 µM: Homo sapiens; for viability at 0.0137 µM: HT-29, read-out: HT-29 Cell viability (%), 0.0137 µM; for viability at 0.0412 µM: HT-29, read-out: HT-29 Cell viability (%), 0.0412 µM; for viability at 0.1235 µM: HT-29, read-out: HT-29 Cell viability (%), 0.1235 µM; for viability at 0.3704 µM: HT-29, read-out: HT-29 Cell viability (%), 0.3704 µM; for viability at 1.1111 µM: HT-29, read-out: HT-29 Cell viability (%), 1.1111 µM; for viability at 3.3333 µM: HT-29, read-out: HT-29 Cell viability (%), 3.3333 µM; for viability at 10 µM: HT-29, read-out: HT-29 Cell viability (%), 10.0000 µM
Description: To generate KAP^2D cells, KAP organoids were isolated from Matrigel, fragmented by mechanical dissociation and plated without any extracellular matrix on common cell culture dishes. Phoenix-Eco packaging cells (CRL-3214), HCT-15 (CCL-225), HCT 116 (CCL-247), COLO 205 (CCL-222), LS 174T (CL-188), RKO (CRL-2577) and HT-29 (HTB-38) were obtained from the American Type Culture Collection. The cells were cultured at 37 °C and 7% CO2 with RPMI (KAP^2D cells) or DMEM (other cell lines), supplemented with 10% FBS and penicillin–streptomycin. KAP^2D cells were authenticated using PCR (Kras locus and Trp53 locus). Phoenix-Eco packaging cells and HCT-15, HCT 116, COLO 205, LS 174T, RKO and HT-29 cells were authenticated by the provider using short tandem repeat profiling. No commonly misidentified cell lines were used. Mycoplasma contamination was excluded by a PCR-based analysis.
as §1

PDO12 = assay: cell viability in patient-derived CRC organoids PDO12; type: cell-based, human
Description: as §1

O=C1c2ccc(Nc3ccc(F)cc3F)cc2CCc2ccc(OC[C@H](O)CO)cc21 [SKL, skepinone-L, reference compound]
viability at 0.5 µM (PDO10; Homo sapiens, 96 h, read-out: Cell viability (%), PDO10, 0.5 µM, 4 d): 90.5%
viability at 1 µM (PDO10; Homo sapiens, 96 h, read-out: Cell viability (%), PDO10, 1 µM, 4 days): 94.7%
Cell viability (%) (PDO10; PDO10, 0.5 µM, 4 d, 0.5 µM): 87.26% and 98.21%
Cell viability (%) (PDO10; PDO10, 1 µM, 4 days, 1 µM): 92.67% and 102.90%
HT-29 Cell viability (%) (HT-29; 0.0137 µM, Repetition): 103.68% and 103.86%
HT-29 Cell viability (%) (HT-29; 0.0137 µM, first experiment): 94.50% and 93.43%
HT-29 Cell viability (%) (HT-29; 0.0412 µM, Repetition): 99.67% and 99.85%
HT-29 Cell viability (%) (HT-29; 0.0412 µM, first experiment): 92.23% and 89.57%
HT-29 Cell viability (%) (HT-29; 0.1235 µM, Repetition): 103.93% and 105.17%
HT-29 Cell viability (%) (HT-29; 0.1235 µM, first experiment): 89.62% and 88.59%
HT-29 Cell viability (%) (HT-29; 0.3704 µM, Repetition): 102.88% and 105.26%
HT-29 Cell viability (%) (HT-29; 0.3704 µM, first experiment): 92.54% and 90.50%
HT-29 Cell viability (%) (HT-29; 1.1111 µM, Repetition): 104.46% and 106.93%
HT-29 Cell viability (%) (HT-29; 1.1111 µM, first experiment): 97.34% and 97.79%
HT-29 Cell viability (%) (HT-29; 3.3333 µM, Repetition): 100.17% and 95.98%
HT-29 Cell viability (%) (HT-29; 3.3333 µM, first experiment): 98.14% and 94.12%
HT-29 Cell viability (%) (HT-29; 10.0000 µM, Repetition): 26.97% and 25.38%
HT-29 Cell viability (%) (HT-29; 10.0000 µM, first experiment): 26.95% and 26.30%
viability at 0.0137 µM (HT-29; Repetition): 95.8%
viability at 0.0137 µM (HT-29; first experiment): 95.5%
viability at 0.0412 µM (HT-29; Repetition): 92.3%
viability at 0.0412 µM (HT-29; first experiment): 93.7%
viability at 0.1235 µM (HT-29; Repetition): 91.3%
viability at 0.1235 µM (HT-29; first experiment): 91.8%
viability at 0.3704 µM (HT-29; Repetition): 97.9%
viability at 0.3704 µM (HT-29; first experiment): 92.5%
viability at 1.1111 µM (HT-29; Repetition): 99.2%
viability at 1.1111 µM (HT-29; first experiment): 99.6%
viability at 3.3333 µM (HT-29; Repetition): 93.3%
viability at 3.3333 µM (HT-29; first experiment): 95.6%
viability at 10 µM (HT-29; Repetition): 28.2%
viability at 10 µM (HT-29; first experiment): 25.2%
viability at 0.5 µM (PDO12; Homo sapiens, 96 h, read-out: Cell viability (%), PDO12, 0.5 µM, 4 d): 102%
Cell viability (%) (PDO12; PDO12, 0.5 µM, 4 d, 0.5 µM): 113.70% and 97.26%
Cell viability (%) (PDO12; PDO12, 1 µM, 4 days, 1 µM): 108.38% and 136.33% and 112.98%
